Tests used:
Settings in all cases: Compound concentration 1.0 uM
[1] = target: Serine/threonine-protein kinase Nek4 (Homo sapiens) (UniProt P51957)
[2] = target: Serine/threonine-protein kinase SBK1 (Homo sapiens) (UniProt Q52WX2)
[3] = target: Calcium/calmodulin-dependent protein kinase type II subunit gamma (Homo sapiens) (UniProt Q13555)
[4] = target: Mitogen-activated protein kinase kinase kinase 10 (Homo sapiens) (UniProt Q02779)
[5] = target: Serine-protein kinase ATM (Homo sapiens) (UniProt Q13315)
[6] = target: T1, Receptor-interacting serine/threonine-protein kinase 1 (Homo sapiens) (UniProt Q13546)
T1 sequence (whole entry): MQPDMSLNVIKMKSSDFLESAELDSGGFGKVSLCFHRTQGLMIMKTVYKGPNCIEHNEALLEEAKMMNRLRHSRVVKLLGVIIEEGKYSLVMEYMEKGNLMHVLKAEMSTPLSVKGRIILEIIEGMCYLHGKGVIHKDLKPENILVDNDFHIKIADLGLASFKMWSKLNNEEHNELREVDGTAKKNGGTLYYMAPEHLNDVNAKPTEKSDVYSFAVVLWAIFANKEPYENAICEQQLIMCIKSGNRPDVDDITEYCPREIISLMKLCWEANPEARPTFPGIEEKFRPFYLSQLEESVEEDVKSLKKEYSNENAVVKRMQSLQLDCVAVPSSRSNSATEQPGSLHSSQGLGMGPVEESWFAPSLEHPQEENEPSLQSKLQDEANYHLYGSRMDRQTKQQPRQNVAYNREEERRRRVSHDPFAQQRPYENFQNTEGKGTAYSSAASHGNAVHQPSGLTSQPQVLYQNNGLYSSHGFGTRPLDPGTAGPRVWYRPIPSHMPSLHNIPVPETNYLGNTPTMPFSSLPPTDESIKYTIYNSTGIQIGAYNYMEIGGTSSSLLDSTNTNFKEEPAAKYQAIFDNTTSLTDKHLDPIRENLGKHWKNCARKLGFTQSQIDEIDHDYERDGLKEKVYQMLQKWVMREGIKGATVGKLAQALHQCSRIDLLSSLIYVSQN

[7] = target: mTOR/FKBP12A/FKBP12B (Homo sapiens) (UniProt P62942+P68106+P42345)
Chain of mTOR/FKBP12A/FKBP12B (Homo sapiens) (P62942 2-108 limits assumed, other chains not shown): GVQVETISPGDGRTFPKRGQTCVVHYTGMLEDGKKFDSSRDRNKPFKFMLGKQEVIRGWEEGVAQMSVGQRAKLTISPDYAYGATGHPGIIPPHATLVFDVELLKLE
Chain of mTOR/FKBP12A/FKBP12B (Homo sapiens) (P68106 whole entry partner, other chains not shown): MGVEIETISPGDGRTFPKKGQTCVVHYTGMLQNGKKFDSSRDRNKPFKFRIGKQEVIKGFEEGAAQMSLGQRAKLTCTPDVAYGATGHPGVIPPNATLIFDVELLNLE

[8] = target: Serine/threonine-protein kinase PAK 6 (Homo sapiens) (UniProt Q9NQU5)
Chain of Serine/threonine-protein kinase PAK 6 (Homo sapiens) (Q9NQU5 whole entry, looked up): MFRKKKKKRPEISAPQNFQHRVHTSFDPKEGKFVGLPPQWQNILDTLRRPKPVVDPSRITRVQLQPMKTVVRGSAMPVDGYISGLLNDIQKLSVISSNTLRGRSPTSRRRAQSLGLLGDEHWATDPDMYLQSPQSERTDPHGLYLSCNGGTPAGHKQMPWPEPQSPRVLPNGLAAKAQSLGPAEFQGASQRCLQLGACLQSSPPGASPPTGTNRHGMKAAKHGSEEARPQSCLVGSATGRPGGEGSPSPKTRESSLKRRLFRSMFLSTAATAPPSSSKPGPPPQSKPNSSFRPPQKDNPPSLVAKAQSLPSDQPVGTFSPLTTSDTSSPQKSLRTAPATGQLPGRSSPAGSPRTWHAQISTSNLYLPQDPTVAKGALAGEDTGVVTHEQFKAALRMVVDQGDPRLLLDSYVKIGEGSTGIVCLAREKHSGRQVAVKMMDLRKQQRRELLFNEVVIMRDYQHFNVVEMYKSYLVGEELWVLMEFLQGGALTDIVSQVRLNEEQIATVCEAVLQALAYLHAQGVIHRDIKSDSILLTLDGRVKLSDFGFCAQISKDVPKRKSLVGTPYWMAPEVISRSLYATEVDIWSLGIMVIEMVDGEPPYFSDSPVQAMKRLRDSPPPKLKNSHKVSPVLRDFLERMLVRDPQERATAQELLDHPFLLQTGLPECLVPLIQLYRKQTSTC

[9] = target: Serine/threonine-protein kinase WNK3 (Homo sapiens) (UniProt Q9BYP7)
Chain of Serine/threonine-protein kinase WNK3 (Homo sapiens) (Q9BYP7 whole entry): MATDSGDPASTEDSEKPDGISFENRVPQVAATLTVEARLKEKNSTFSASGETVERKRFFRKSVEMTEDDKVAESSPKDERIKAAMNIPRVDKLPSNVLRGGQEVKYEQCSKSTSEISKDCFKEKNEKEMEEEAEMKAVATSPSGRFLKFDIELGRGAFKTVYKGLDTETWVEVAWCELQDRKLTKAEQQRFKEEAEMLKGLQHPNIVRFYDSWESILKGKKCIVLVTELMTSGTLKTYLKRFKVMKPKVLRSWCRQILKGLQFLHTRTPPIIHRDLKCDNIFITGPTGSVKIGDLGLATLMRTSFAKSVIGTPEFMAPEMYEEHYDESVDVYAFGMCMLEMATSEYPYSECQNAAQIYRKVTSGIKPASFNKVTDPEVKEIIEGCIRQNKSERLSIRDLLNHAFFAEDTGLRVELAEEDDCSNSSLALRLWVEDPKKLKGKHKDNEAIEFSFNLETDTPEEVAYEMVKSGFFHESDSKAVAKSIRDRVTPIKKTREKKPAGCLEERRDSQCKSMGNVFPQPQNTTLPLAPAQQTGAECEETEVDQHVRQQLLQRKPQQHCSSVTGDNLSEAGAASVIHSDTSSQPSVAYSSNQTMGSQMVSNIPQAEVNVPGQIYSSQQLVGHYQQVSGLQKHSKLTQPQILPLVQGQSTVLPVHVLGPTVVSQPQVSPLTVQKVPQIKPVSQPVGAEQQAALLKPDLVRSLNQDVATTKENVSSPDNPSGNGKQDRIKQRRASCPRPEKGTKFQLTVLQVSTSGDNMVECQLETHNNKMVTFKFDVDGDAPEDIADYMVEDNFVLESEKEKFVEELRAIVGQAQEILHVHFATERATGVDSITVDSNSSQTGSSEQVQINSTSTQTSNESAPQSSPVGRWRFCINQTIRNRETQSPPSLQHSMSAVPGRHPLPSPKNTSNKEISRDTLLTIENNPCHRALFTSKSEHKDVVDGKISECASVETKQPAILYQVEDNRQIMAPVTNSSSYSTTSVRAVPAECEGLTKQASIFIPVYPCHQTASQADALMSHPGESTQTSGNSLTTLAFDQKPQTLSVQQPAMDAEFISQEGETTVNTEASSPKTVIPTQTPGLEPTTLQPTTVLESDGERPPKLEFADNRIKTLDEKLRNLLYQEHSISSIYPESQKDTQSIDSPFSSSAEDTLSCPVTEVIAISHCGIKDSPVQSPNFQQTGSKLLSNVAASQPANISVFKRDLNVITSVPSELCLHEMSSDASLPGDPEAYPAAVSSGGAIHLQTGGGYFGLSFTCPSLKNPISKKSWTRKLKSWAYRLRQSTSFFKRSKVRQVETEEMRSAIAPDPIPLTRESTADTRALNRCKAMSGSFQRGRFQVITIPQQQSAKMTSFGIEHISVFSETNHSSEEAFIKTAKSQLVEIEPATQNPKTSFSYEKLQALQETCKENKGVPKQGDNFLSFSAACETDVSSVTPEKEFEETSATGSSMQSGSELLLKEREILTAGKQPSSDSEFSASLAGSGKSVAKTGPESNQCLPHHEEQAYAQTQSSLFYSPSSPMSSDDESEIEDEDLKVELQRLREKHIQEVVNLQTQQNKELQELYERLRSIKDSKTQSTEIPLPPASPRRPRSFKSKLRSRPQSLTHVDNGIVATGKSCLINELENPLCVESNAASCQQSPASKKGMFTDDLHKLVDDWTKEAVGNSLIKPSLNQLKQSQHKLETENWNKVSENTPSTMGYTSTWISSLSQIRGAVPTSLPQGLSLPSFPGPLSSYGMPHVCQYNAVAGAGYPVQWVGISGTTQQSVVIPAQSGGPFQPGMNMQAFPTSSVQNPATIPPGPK

[10] = target: [Pyruvate dehydrogenase (acetyl-transferring)] kinase isozyme 1, mitochondrial (Homo sapiens) (UniProt Q15118)
[11] = target: ALK tyrosine kinase receptor (Homo sapiens) (UniProt Q9UM73)
[12] = target: Receptor-type tyrosine-protein kinase FLT3 (Homo sapiens) (UniProt P36888)
Chain of Receptor-type tyrosine-protein kinase FLT3 (Homo sapiens) (P36888 whole entry): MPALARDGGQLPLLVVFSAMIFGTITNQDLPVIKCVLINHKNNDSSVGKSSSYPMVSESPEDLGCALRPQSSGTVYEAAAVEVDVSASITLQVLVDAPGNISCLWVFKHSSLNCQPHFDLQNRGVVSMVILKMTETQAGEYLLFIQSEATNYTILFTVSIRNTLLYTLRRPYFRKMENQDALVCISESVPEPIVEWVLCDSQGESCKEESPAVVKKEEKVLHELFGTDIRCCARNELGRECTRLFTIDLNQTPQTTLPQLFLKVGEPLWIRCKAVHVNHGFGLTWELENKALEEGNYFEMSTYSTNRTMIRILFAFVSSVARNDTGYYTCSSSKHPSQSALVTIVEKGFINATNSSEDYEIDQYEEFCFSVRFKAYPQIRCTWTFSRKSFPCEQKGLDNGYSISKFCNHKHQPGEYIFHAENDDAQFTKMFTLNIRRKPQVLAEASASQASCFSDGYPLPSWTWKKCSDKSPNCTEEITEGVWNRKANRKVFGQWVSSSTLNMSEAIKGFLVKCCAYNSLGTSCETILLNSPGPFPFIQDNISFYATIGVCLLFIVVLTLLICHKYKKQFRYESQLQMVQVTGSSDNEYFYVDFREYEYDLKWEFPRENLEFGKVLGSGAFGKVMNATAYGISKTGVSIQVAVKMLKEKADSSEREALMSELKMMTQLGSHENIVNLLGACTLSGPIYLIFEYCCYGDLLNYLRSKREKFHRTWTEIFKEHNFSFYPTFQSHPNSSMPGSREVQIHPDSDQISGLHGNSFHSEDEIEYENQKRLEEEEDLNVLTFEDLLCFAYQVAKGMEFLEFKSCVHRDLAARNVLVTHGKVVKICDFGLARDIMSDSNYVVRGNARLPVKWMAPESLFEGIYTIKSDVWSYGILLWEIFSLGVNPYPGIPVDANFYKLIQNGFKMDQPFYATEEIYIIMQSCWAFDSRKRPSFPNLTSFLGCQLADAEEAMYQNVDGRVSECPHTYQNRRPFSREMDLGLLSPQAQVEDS

[13] = target: Focal adhesion kinase 1 (Homo sapiens) (UniProt Q05397)
[14] = target: T2, Serine/threonine-protein kinase D3 (Homo sapiens) (UniProt O94806)
T2 sequence (whole entry): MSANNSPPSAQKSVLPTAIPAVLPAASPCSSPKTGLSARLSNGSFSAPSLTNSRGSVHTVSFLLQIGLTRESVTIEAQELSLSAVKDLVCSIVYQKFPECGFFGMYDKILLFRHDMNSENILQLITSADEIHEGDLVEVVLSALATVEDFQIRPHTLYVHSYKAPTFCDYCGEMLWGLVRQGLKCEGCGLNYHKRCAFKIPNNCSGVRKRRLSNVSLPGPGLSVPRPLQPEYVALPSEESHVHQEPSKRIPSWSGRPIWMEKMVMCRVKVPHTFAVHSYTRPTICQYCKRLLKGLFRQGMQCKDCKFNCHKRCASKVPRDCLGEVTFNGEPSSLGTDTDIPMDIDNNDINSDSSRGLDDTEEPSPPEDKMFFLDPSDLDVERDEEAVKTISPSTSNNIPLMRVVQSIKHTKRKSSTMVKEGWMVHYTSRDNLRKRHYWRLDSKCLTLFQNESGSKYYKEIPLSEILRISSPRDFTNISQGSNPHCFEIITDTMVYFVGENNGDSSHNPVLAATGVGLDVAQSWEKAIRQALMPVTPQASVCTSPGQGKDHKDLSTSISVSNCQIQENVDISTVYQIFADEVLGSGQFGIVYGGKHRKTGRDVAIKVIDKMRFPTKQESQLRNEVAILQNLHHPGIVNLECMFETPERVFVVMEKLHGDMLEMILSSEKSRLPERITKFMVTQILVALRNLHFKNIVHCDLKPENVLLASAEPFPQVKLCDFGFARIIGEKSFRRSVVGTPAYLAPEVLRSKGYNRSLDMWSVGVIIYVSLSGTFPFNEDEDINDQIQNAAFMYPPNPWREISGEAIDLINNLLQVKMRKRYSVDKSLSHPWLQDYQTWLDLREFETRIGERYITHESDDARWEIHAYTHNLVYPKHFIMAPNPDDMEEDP

[15] = target: T3, Tyrosine-protein kinase TXK (Homo sapiens) (UniProt P42681)
T3 sequence (whole entry): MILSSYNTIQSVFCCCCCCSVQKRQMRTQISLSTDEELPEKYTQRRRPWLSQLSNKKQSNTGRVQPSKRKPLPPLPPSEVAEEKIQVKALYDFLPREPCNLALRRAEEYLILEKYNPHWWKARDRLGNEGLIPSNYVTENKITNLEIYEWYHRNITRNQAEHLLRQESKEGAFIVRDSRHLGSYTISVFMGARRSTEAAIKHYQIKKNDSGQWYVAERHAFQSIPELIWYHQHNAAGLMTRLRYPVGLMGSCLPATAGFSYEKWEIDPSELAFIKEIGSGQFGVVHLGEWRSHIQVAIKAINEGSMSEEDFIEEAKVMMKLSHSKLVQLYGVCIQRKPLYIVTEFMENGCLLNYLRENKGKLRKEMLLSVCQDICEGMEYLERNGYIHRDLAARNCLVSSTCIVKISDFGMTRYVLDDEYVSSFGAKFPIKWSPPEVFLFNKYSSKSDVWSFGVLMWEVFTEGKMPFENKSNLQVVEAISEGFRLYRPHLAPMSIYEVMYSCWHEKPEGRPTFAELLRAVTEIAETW

[16] = target: Serine/threonine-protein kinase 32B (Homo sapiens) (UniProt Q9NY57)

Measured: % residual kinase activity

Chain of Serine/threonine-protein kinase SBK1 (Homo sapiens) (Q52WX2 whole entry): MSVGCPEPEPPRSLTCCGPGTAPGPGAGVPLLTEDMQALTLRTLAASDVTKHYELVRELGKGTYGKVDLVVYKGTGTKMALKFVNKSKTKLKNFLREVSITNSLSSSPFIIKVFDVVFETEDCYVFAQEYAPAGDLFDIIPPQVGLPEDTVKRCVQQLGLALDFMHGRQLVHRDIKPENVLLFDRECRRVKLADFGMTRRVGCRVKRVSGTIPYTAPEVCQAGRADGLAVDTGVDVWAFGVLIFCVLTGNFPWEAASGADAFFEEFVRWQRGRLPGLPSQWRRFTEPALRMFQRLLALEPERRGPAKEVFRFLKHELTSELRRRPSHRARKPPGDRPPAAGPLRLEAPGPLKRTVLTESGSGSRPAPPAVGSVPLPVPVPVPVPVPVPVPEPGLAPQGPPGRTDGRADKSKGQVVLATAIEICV
Chain of Calcium/calmodulin-dependent protein kinase type II subunit gamma (Homo sapiens) (Q13555 whole entry): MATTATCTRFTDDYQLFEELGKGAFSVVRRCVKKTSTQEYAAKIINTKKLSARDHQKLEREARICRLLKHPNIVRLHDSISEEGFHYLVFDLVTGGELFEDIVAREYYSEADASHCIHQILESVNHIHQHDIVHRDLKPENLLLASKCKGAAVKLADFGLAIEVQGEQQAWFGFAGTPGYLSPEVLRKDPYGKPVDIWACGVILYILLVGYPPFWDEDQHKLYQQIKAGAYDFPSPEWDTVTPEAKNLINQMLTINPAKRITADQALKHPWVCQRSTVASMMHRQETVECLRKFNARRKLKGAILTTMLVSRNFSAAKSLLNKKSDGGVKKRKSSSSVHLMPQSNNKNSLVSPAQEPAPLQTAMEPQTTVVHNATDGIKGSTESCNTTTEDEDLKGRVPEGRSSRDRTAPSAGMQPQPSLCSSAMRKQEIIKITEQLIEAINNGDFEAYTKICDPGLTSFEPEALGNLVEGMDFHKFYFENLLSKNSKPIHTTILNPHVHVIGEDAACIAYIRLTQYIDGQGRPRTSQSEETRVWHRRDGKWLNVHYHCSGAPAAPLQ

CN1CCN(c2cnc3c(C4CCN(C(=O)c5ccc(OC(F)(F)F)cc5N)CC4)ncnc3c2)CC1 [BAY-885]
inactive: [1] 114% | [2] 96% | [3] 93% | [4] 107% | [5] 107% | [6] 100% | [7] 101% | [8] 103% | [9] 107% | [10] 89% | [11] 121% | [12] 100% | [13] 101% | [14] 100% | [15] 99% | [16] 98%

Source: ChEMBL document CHEMBL4507268 (2021)
